The conditions of series [1]: rats, colloidal solution; cited from earlier work.
For series [2] the following is noted: dispersion of YM022 in HPMC and polyoxyethylene hydrogenated castor oil administered to aqueous solution; cited from earlier work.
The nature of series [3]: Solubility of the drug alone (crystalline or amorphous). To be noted: for solubility: thermodynamic from solid.
A short description of series [4]: Dissolution test of amorphous Drug 1 in PBS with varying HPMCAS-MF concentration. The note with it: amorphous Drug 1 10 mg/mL added, PBS 37°C. Type of series: physicochemical. Here is the method: First, HPMCAS-MF was dissolved in PBS with stirring at 37° C. and 1.5 mL of this solution was placed in a microcentrifuge tube.
The format of series [5] is physicochemical. Here is the method:
To determine the composition of the polymer/drug assemblies, solutions formed from the dispersions of Example 30 and Example 31 in PBS were analyzed using HPLC and NMR, as described in Example 4. […] To measure the free drug concentration using NMR, 2 wt % NaTC/POPC was added to the solution. By measuring the amount of drug that partitioned into NaTC/POPC micelles, the concentration of free drug in PBS was calculated using the equation: […]
where DM is the concentration of drug in micelles (measured by NMR), Kp is the partition coefficient for drug partitioning between water and micelles (30,000), Df is the free drug concentration in PBS, and VM is the volume ratio occupied by micelles in the PBS solution (cm^3 micelles/cm^3 solution=0.021). […] The amount of polymer contained in the polymer/drug assemblies was calculated by subtracting the free polymer and the polymer in the precipitate from the total polymer added to solution (contained in the solid dispersions). […]
The dispersions of Examples 30 and 31 were added to PBS with varying amounts of NaTC/POPC, and the concentration of drug in NaTC/POPC micelles was measured by NMR spectroscopy. […]
The free drug concentration with no micelles present was calculated as follows. […]
Aqueous solutions formed from the solid dispersion of Example 40 were analyzed using DLS and NMR, as described in Examples 3 and 4. […]

The mark [6] stands for this setting: HPMCAS-MF 0 mg/mL (amorphous drug alone).

Molecules are shown by their SMILES. In brackets after ≈: the same amount, converted by molar mass.

For the compound `Cc1cccc(NC(=O)N[C@@H]2N=C(c3ccccc3)c3ccccc3N(CC(=O)c3ccccc3C)C2=O)c1` [YM022], the “Absorption on oral administration” value in series [1] was “good absorption”. In addition, in series [2], the “Mean diameter of colloidal particles” value is reported as 160 nm.

Take `Cc1ncccc1CNC(=O)c1ccc2c(c1)CC[C@@H]1C[C@@](O)(CCC(F)(F)F)CC[C@@]21Cc1ccccc1` [Drug 3, 2-phenanthrenecarboxamide, 4b,5,6,7,8,8a,9,10-octahydro-7-hydroxy-N-[(2-methyl-3-pyridinyl)methyl]-4b-(phenylmethyl)-7-(3,3,3-trifluoropropyl)-, (4bS,7S,8aR)-]: in series [3] (Solubility of Drug 3, crystalline Drug 3), the solubility (as a rule, how much of the substance goes into solution per volume) turned out to be 0.004 µg/mL (≈ 0.00745 µM).

On to `O=C(N[C@@H](Cc1ccccc1)[C@@H](O)C(=O)N1C[C@@H](O)[C@@H](O)C1)c1cc2cc(Cl)ccc2[nH]1` [Drug 1, 5-chloro-1H-indole-2-carboxylic acid [(1S)-benzyl-3-((3R, 4S)-dihydroxypyrroldin-1-yl-)-(2R)-hydroxy-3-oxypropyl] amide], for which the “HPLC Total Dissolved Drug 1 at 90 min.” value in series [4] (setting [6]) was determined as 224 µg/mL; in series [4] (HPMCAS-MF 0.5 mg/mL) it was 447 µg/mL; in series [4] (HPMCAS-MF 1 mg/mL), 487 µg/mL; in series [4] (HPMCAS-MF 5 mg/mL), 4928 µg/mL; in series [4] (HPMCAS-MF 10 mg/mL), 7453 µg/mL; in series [4] (HPMCAS-MF 20 mg/mL), 8099 µg/mL. Also, the “HPLC Total Dissolved Drug 1 at 1200 min.” value stood at 196 µg/mL in series [4] (setting [6]); 289 µg/mL in series [4] (HPMCAS-MF 0.5 mg/mL); 203 µg/mL in series [4] (HPMCAS-MF 1 mg/mL); 1550 µg/mL in series [4] (HPMCAS-MF 5 mg/mL); 5431 µg/mL in series [4] (HPMCAS-MF 10 mg/mL); 7451 µg/mL in series [4] (HPMCAS-MF 20 mg/mL).

Take `CCOC(=O)N1c2ccc(C(F)(F)F)cc2C(N(Cc2cc(C(F)(F)F)cc(C(F)(F)F)c2)C(=O)OC)CC1CC` (stereo not drawn) [Drug 2, 4-[(3,5-bis-trifluoromethyl-benzyl)-methoxycarbonyl-amino]-2-ethyl-6-trifluoromethyl-3,4-dihydro-2H-quinoline-1-carboxylic acid ethyl ester]: the solubility was 6 µg/mL (≈ 9.99 µM) in series [3] (PBS with 2% NaTC/POPC, fassgf or other biorelevant, Solubility of crystalline Drug 2 in 2% NaTC/POPC in PBS, 2% NaTC/POPC in PBS); 0.01 µg/mL (≈ 0.0167 µM) in series [3] (PBS, Solubility of the crystalline Drug 2); roughly 0.01 µg/mL (≈ 0.0167 µM) in series [3] (aqueous solution without micelles, Solubility of Drug 2 in aqueous solution without micelles, crystalline Drug 2, separate experiments). Moreover, the “Solubility of Drug 2 in aqueous solution without micelles” value in series [3] (crystalline Drug 2, separate experiments) is “approximately 0.010 μg/mL”. In addition, the “Kp, partition coefficient for drug partitioning between water and micelles” value in series [5] was 30,000. The compound further registered a Drug 2 Concentration, NaTC/POPC Conc. 0 wt % in series [5] (crystalline Drug 2, value obtained in a separate experiment) of 0.01 µg/mL.

Source of the values: patent publication US20030170309A1, “Pharmaceutical compositions containing polymer and drug assemblies” (priority 2001, published 2003).
